These results are taken from patent US6972287B1, “Method of inhibiting amyloid protein aggregation and imaging amyloid deposits” (Pfizer Inc., priority 1999, dated 2005).

“And” between values parts separate entries of the source, which are not always exact repeats. Equal values may be shown once. Where a name gives a salt, the structure may show the parent alone. Bounds are passed on as bounds.

Common to all, as to type: biochemical
Assay [1] concerns the target T1, Aβ(1-40) (Homo sapiens, UniProt P05067).
T1 construct: […]; purchased Bachem, Torrance, Calif
Nature of the assay: BASSR (Beta-Amyloid Self-Seeding Radioassay), inhibitors of self-seeded amyloid fibril growth. The method, then: BASSR (Beta-Amyloid Self-Seeding Radioassay)
(§1) An assay for inhibitors of self-seeded amyloid fibril growth
Assay Buffer—50 mM sodium phosphate, pH 7.5, 100 mM NaCl, 0.02% NaN3, 1 M urea (filter and store at 4° C.).
(§2) Typically, the solution should be stored until no lag phase is seen in the assay.
^125I-labeled Aβ(1-40)—150K-350K cpm/μL in 100% acetonitrile—0.1% trifluoroacetic acid (TFA)—1% β-mercaptoethanol (aliquots stored at −20° C.). ^125I-labeled Aβ(1-40) can be made in accordance with the procedure set forth by H. LeVine, III in Neurobiol. Aging, 16, 755, (1995), which is hereby incorporated by reference, or this reagent may be purchased from Amersham, Arlington Heights, Ill.
The following are the amounts of the components of the reaction mixture sufficient for 50 assay wells:
• 1) Prepare reaction mixture above by mixing components and storing on ice. • 2) Pipet 14.5 μL of reaction mixture into each of 50 wells on a polypropylene U-bottom 96-well microtiter plate on ice. (Costar 3794). • 3) Add 1.7 μL of diluted compound to be tested to each well in a column of eight, including solvent control. Serial 3-fold dilutions from 1 mM (100 μM final) in assay buffer−urea=7 dilutions+zero. Each 96-well plate can therefore accommodate 11 samples+1 Congo Red control (0.039-5 μM final in 2-fold steps). • 4) Seal the plate with aluminum film (Beckman 538619) and incubate for 10 minutes on ice. • 5) Raise the temperature to 37° C. and incubate for 3 to 5 hours (depending on the lot of the peptide). • 6) Remove the aluminum film and add 200 μL/well of ice cold assay buffer with urea, collecting the radiolabeled fibrils by vacuum filtration through 0.2 μm pore size GVWP filters in 96-well plates (Millipore MAGV N22, Bedford, Mass.). Determine the radioactivity of the filters using standard methods well-known to those skilled in the art. BASST (Beta-Amyloid Self-Seeding, Thioflavin T)

In assay [2] the target is T1, Aβ(1-40). Nature of the assay: BASST (Beta-Amyloid Self-Seeding, Thioflavin T), inhibitors of self-seeded amyloid fibril growth. The method, then:
as §1
Assay Buffer—50 mM sodium phosphate, pH 7.5, 100 mM NaCl, 0.02% NaN3, 1 M urea (filter and store at 4° C.)
as §2
The following are the amounts of the components of the reaction mixture that result in each of the 50 assay wells:
• 1) Prepare the reaction mix above by mixing the components and storing on ice. • 2) Pipet 14.5 μL of reaction mixture into each of 50 wells of a polystyrene U-bottom 96-well microtiter plate (Corning 25881-96) on ice. • 3) Add 1.7 μL of diluted compound to be tested to each well in a column of eight, including solvent control. Serial 3-fold dilutions from 1 mM (100 μM final) in assay buffer−urea=7 dilutions+zero. Each 96-well plate can therefore accommodate 11 samples+1 Congo Red control (0.039-5 μM final in 2-fold steps). • 4) Seal the plate with aluminum film and incubate for 10 minutes on ice. • 5) Raise the temperature to 37° C. and incubate for 3 to 5 hours (depends on the lot of the peptide). • 6) Remove the aluminum film and add 250 μL/well of 5 μM thioflavin T (ThT) [T-3516, Sigma-Aldrich] in 50 mM glycine-NaOH, pH 8.5. Read fluorescence on a plate reader (ex=440 nm/20 nm; em=485 nm/20 nm) within 5 minutes. BAPA (Beta-Amyloid Peptide Aggregation)

The target of assay [3] is T2, Aβ (1-42) (Homo sapiens, UniProt P05067).
T2 construct: Required Aβ (1-42) (California Peptide) was dried from its hexafluoroisopropanol (HFIP) stock solution; purchased California Peptide
Nature of the assay: BATYM assay (Aβ (1-42) aggregation, Thioflavin T fluorescence). The note with it: Aβ 1-42 final concentration 100 μM, 37° C., 1 day, letter = synthetic lot. The method, then:
Required Aβ (1-42) (California Peptide) was dried from its hexafluoroisopropanol (HFIP) stock solution. The Aβ (1-42) was dissolved in dimethylsulfoxide (DMSO) and then mixed with phosphate buffered saline (PBS) (pH 7.4). The mixed Aβ (1-42) solution was filtered with a 0.2 μm Omnipore membrane syringe filter Millipore, Bedford, Mass.). The compound to be tested in DMSO (50 times concentrate) was put into each well (0.5 μL/well) of a 96-well plate. The Aβ (1-42) solution was added into each well (24.5 μL/well). The plate was centrifuged at 1,000 g for 5 minutes and incubated at 37° C. for 1 day (Aβ 1-42; final concentration 100 μM).
After incubation Thioflavin T (ThT) (30 μM) solution in glycine-NaOH buffer (pH 8.5, 50 mM) was added into each well (250 μL/well), fluorescence was measured (ex=440/20 nm, em=485/20 nm) using a fluorescence plate reader. The inhibitory activity was calculated as the reduction of fluorescence with the following formula: Inhibition (%)={(F(Aβ)−F(Aβ+compound)}/{F(Aβ)−[…]}×100
The IC50s were calculated by a curve fitting program using the following equation. The data were obtained from two different experiments in triplicate.
x=Concentration of tested compound (M),

The target in assay [4] is T3, Aβ (1-40) peptide (Homo sapiens, UniProt P05067).
T3 construct: 10 μL 0.5 mg/mL Aβ (1-40) peptide in 20% HFIP
Kind of assay: BAPA (Beta-Amyloid Peptide Aggregation, pH 6.0, filtration). The note with it: Aβ (1-40) 33 μM, pH 6.0, 2 to 4 hours at room temperature; replicate values; letter = synthetic lot. As for the experimental part:
Each 96-well plate can therefore accommodate 11 samples+1 Congo Red control (0.039-5 μM final in 2-fold steps). • 4) Seal the plate with aluminum film and incubate for 10 minutes on ice. • 5) Raise the temperature to 37° C. and incubate for 3 to 5 hours (depends on the lot of the peptide). • 6) Remove the aluminum film and add 250 μL/well of 5 μM thioflavin T (ThT) [T-3516, Sigma-Aldrich] in 50 mM glycine-NaOH, pH 8.5. […] The purpose of this assays is to provide a higher volume method of assaying the amount of beta amyloid aggregation using an endpoint assay based on filtration. In this assay, hexafluoroisopropanol (HFIP) is used to break down the initial amyloid peptide to a monomer state and use a concentration of 33 μM which is high enough so that aggregation will occur at pH 6.0 in several hours. Methods: […] Then, we incubate for 2 to 4 hours at room temperature. […] We wash the filter plate with 100 μL of the same phosphate buffer. Aggregation was detected on a Microbeta counter after impregnating the filters with Meltilex (1450-441) and is corrected for background.

Setting [5] is: 30 μM soluble Aβ(1-40) + 125I-labeled Aβ(1-40), 37° C., 3 to 5 hours, replicate values, letter = synthetic lot, ppt = precipitate, V-shaped = inhibition followed by precipitation.
[6] abbreviates: 30 μM soluble Aβ(1-40), 37° C., 3 to 5 hours, thioflavin T fluorescence, replicate values, letter = synthetic lot, read-out: BASST (IC50 = μM).

T3 sequence (P05067 672-711 limits assumed): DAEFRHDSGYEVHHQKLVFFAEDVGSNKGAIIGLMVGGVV
T1 sequence (P05067 672-711 limits assumed): as above
T2 sequence (P05067 672-713 limits assumed): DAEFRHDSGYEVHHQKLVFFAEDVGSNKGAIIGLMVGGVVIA

For the compound “2-{4-[3-(3-Aminophenyl)propyl]phenylamino}benzoic acid [Example 23]”, the concentration for half-maximal inhibition (IC50) – broadly, the concentration that inhibits the measured activity by half – was 20 µM in assay [1], 2 µM in assay [2] (read-out: BASST (IC50 = μM)), more than 100 µM in assay [3] and 17 µM in assay [4].
On to “2-{4-[5-(3,4-Dichloro-phenyl)pentyl]phenylamino}methoxy-5-nitrobenzoic acid [Example 14]”, for which the IC50 in assay [1] (setting [5]) was 18 µM and 8 µM and 6 µM and 7 µM; in assay [2] (setting [6]) it was 1 µM; in assay [3], 10.9 µM; in assay [4], more than 10 µM.
With `O=C(O)c1ccccc1Nc1ccc(CCc2ccc(Cl)c(Cl)c2)cc1` [Example 1, 2-{4-[2-(3,4-Dichlorophenyl)ethyl]phenylamino}-benzoic acid], the IC50 in assay [1] (setting [5]) was > 100 µM (5×) and 52 µM and 10 µM; in assay [3], > 60 µM and 50 µM and 58.8 µM and 57.8 µM; in assay [4], > 60 µM and 11 µM and > 100 µM and 86 µM.
With `O=C(O)c1ccccc1Nc1ccc(CCc2cc(O)c(O)c(O)c2)cc1` [Example 6, 2-{4-[2-(3,4,5-Trihydroxy-phenyl)-ethyl]phenylamino}benzoic acid], the IC50 was 15 µM and 21 µM and 20 µM and 40 µM in assay [1] (setting [5]); 4 µM and 1 µM and 3 µM in assay [2] (setting [6]); 21.5 µM in assay [3]; more than 60 µM in assay [4].
Consider `COc1cc(Nc2ccc(CCCc3ccc(Cl)c(Cl)c3)cc2)c(C(=O)O)cc1[N+](=O)[O-]` [Example 7], for which the concentration for half-maximal inhibition (IC50) was 18 µM and 13 µM and 12 µM and 20 µM in assay [1] (setting [5]); 2 µM in assay [2] (setting [6]); 8.83 µM in assay [3]; 39 µM in assay [4].
`O=C(O)c1ccccc1Nc1ccc(CCCCc2ccc(Cl)c(Cl)c2)cc1` [Example 10, 2-{4-[4-(3,4-Dichlorophenyl)butyl]phenylamino}benzoic acid]: the IC50 was 70 µM and 50 µM in assay [1] (setting [5]); 4 µM in assay [2] (setting [6]); 75.7 µM in assay [3]; 67 µM in assay [4].
Take `O=C(O)c1cc([N+](=O)[O-])ccc1Nc1ccc(CCCCc2ccc(Cl)c(Cl)c2)cc1` [Example 11, 2-{4-[4-(3,4-Dichloro-phenyl)-butyl]-phenylamino}-5-nitro-benzoic acid]: the concentration for half-maximal inhibition (IC50) is 18 µM and 20 µM (2×) and > 100 µM (2×) and 21 µM and 30 µM in assay [1] (setting [5]); 1 µM (3×) and 3 µM and 800 nM in assay [2] (setting [6]); 5.62 µM and 6.78 µM in assay [3]; 23 µM and 9 µM in assay [4].
For `O=C(O)c1cc([N+](=O)[O-])cc([N+](=O)[O-])c1Nc1ccc(CCCCc2ccc(Cl)c(Cl)c2)cc1` [Example 12, 2-{4-[4-(3,4-Dichlorophenyl)butyl]phenylamino}-3,5-dinitrobenzoic acid], the IC50 was 20 µM in assay [1] (setting [5]), 1 µM in assay [2] (setting [6]), 3.93 µM in assay [3] and more than 60 µM in assay [4].
Regarding `O=C(O)c1ccccc1Nc1ccc(CCc2ccc(Cl)c(C(F)(F)F)c2)cc1` [Example 17], the 50% inhibitory concentration (IC50) was more than 100 µM in assay [1]; 6.2 µM in assay [2] (read-out: BASST (IC50 = μM)); 64.5 µM in assay [3]; > 60 µM and 41 µM in assay [4].
For `CCN(CC)c1ccc(CCCc2ccc(Nc3ccccc3C(=O)O)cc2)cc1` [Example 19, 2-{4-[3-(4-Diethylaminophenyl)propyl]phenylamino}benzoic acid], the half-inhibitory concentration (IC50) was 31 µM and 34 µM in assay [3]; > 60 µM and 43 µM in assay [4].
Consider `Nc1ccc(CCCc2ccc(Nc3ccccc3C(=O)O)cc2)cc1` [Example 22, 2-{4-[3-(4-Aminophenyl)propyl]phenylamino}benzoic acid], for which the IC50 in assay [1] (setting [5]) is 3 µM; in assay [2] (setting [6]), 9 µM; in assay [3] it was more than 100 µM; in assay [4] it was 24 µM.
Regarding `CCN(CC)c1ccc(CCc2ccc(Nc3ccccc3C(=O)O)cc2)cc1` [Example 26, 2-{4-[2-(4-Diethylaminophenyl)ethyl]phenylamino}benzoic acid monohydrochloride monohydrate], the 50% inhibitory concentration (IC50) in assay [2] (BASST (IC50 = μM)) was 1 µM; in assay [3] it was more than 100 µM; in assay [4], 57 µM.
Turning to `CCCN(CCC)c1cccc(CCCc2ccc(Nc3ccccc3C(=O)O)cc2)c1` [Example 27, 2-{4-[3-(3-Dipropylaminophenyl)propyl]phenylamino}benzoic acid], the IC50 in assay [1] (setting [5]) is more than 100 µM; in assay [2] (setting [6]), 3 µM; in assay [3], 19.8 µM; in assay [4] it was 74 µM.
`CCN(CC)c1ccc(CCCc2ccc(N(CC)c3ccccc3C(=O)O)cc2)cc1` [Example 30, 2-(N-{4-[3-(4-Diethylaminophenyl)propyl]phenyl}-N-ethylamino)benzoic acid]: the IC50 in assay [1] (setting [5]) was 30 µM and 20 µM; in assay [2] (setting [6]) it was 4 µM and 2 µM; in assay [3] it was 75.3 µM; in assay [4] it was 38 µM.
Consider `CCN(CC)c1cccc(CCCc2ccc(Nc3ccccc3C(=O)O)cc2)c1` [Example 32, 2-{4-[3-(3-Diethylaminophenyl)propyl]phenylamino}benzoic acid], for which the IC50 in assay [1] (setting [5]) is more than 100 µM; in assay [2] (setting [6]) it was 1 µM; in assay [3], 29.2 µM; in assay [4], 96 µM.
For `CN(C)c1ccc(CCCc2ccc(Nc3ccccc3C(=O)O)cc2)cc1` [Example 34, 2-{4-[3-(4-Dimethylaminophenyl)propyl]phenylamino}benzoic acid], in that order: 45 µM, 3 µM, 45 µM and 48 µM.
In the case of `Cc1ccc(CCc2ccc(Nc3ccc([N+](=O)[O-])cc3C(=O)O)cc2)cc1C` [Example 61, 2-{4-[2-(3,4-Dimethyl-phenyl)-ethyl]-phenylamino}-5-nitro-benzoic acid], the values for the half-maximal inhibitory concentration (IC50) in assay [3] and in assay [4] were 12 µM and 13 µM, respectively.
